Cn1nccc1O
solubility (mole fraction)
Details | 278.15 K | 283.15 K | 288.15 K | 293.15 K | 298.15 K | 303.15 K | 308.15 K | 313.15 K | 318.15 K
in ethanol | 0.0822 | 0.0959 | 0.112 | 0.129 | 0.149 | 0.171 | 0.194 | 0.216 | 0.247
in ethyl acetate | 0.000394 | 0.000668 | 0.00119 | 0.00222 | 0.00348 | 0.00603 | 0.00922 | 0.0154 | 0.0245
in isobutanol | 0.1 | 0.118 | 0.138 | 0.161 | 0.183 | 0.208 | 0.242 | 0.272 | 0.308
in isopropanol | 0.079 | 0.0911 | 0.106 | 0.122 | 0.141 | 0.162 | 0.186 | 0.209 | 0.24
in methanol | 0.0905 | 0.107 | 0.126 | 0.146 | 0.172 | 0.201 | 0.234 | 0.266 | 0.308
in methyl acetate | 0.00741 | 0.00888 | 0.0109 | 0.0128 | 0.0156 | 0.0187 | 0.0217 | 0.0258 | 0.0312
in n-butanol | 0.0789 | 0.09 | 0.105 | 0.121 | 0.139 | 0.159 | 0.177 | 0.2 | 0.231
in n-butyl acetate | 0.000681 | 0.00102 | 0.00149 | 0.00216 | 0.00302 | 0.00433 | 0.00601 | 0.00846 | 0.0125
in n-pentyl acetate | 0.00428 | 0.00553 | 0.00705 | 0.0087 | 0.011 | 0.0138 | 0.0169 | 0.0201 | 0.0261
in n-propanol | 0.0801 | 0.0922 | 0.109 | 0.127 | 0.143 | 0.165 | 0.185 | 0.211 | 0.245
in n-propyl acetate | 0.000277 | 0.0005 | 0.000774 | 0.00138 | 0.00218 | 0.0032 | 0.00511 | 0.00843 | 0.0124
in sec-butanol | 0.0889 | 0.101 | 0.117 | 0.135 | 0.154 | 0.173 | 0.195 | 0.219 | 0.251

Reference: BigSolDB 2.1
